Results published in patent US8846951B2 (AbbVie Inc., priority 2009, dated 2014).
Read-outs that look alike come from different tables or passages of the source.

Tests used:
5HT2B receptors = molecular target: T1, 5HT2B receptors (Homo sapiens, UniProt P41595); test: Human 5-HT2B functional high throughput screening assay in CHO-K1 cells (calcium flux); assay type: cell-based; conditions: for EC50: CHO-K1 cells, calcium flux
T1 construct: expressed in transfected cells; host or cells: CHO-K1 cells
How it was run: (§1)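 Agonism is measured as intracellular calcium increase in receptor-overexpressing CHO-K1 cells, read by FLIPR at 25 °C. Responses are expressed relative to serotonin, with EC50 and Emax derived from a 4-parameter logistic curve over 6 concentrations starting at 10 μM.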

5HT2C receptors = molecular target: T2, 5HT2C receptors (Homo sapiens, UniProt P28335); test: Human 5-HT2C functional high throughput screening assay in CHO-K1 cells (calcium flux); assay type: cell-based; set-up: expressed in transfected cells; host or cells: CHO-K1 cells; conditions: for Emax: CHO-K1, 5-HT2C, maximum functional response as percentage relative to the effect of serotonin; for EC50: CHO-K1 cells, calcium flux
T2 sequence (P28335 33-458): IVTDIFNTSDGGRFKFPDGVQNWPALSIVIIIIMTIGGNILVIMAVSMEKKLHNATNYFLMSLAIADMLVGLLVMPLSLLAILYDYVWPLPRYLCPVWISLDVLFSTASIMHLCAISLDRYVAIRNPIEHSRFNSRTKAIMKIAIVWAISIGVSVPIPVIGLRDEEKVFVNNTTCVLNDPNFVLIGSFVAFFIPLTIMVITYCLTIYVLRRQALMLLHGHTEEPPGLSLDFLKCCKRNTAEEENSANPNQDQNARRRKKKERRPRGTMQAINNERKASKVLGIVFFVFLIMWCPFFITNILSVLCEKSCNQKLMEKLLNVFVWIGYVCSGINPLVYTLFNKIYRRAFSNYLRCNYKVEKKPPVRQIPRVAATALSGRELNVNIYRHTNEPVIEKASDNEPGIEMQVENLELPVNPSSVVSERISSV
How it was run: as §1

[1] = 5-HT2B, maximum functional response as percentage relative to the effect of serotonin
[2] = 5-HT2B agonist activity, read-out: EC50
[3] = 5-HT2C agonist activity, read-out: EC50

T1 sequence (P41595 whole entry): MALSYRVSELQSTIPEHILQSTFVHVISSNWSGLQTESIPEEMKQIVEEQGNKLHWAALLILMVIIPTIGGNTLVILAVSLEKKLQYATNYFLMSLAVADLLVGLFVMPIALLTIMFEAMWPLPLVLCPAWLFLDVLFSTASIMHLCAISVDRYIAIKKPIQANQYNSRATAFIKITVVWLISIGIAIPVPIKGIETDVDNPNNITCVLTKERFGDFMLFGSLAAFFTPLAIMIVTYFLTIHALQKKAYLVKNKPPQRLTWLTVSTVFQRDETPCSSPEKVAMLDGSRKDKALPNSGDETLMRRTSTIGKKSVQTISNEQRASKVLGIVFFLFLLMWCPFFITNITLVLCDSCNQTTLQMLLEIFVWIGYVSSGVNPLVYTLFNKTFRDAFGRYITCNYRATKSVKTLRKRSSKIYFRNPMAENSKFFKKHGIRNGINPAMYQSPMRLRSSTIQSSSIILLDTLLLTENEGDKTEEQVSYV

| SMILES | Emax (5HT2B receptors; [1]) | EC50 (5HT2B receptors; EC50, 5-HT2B agonist activity) | Emax (5HT2C receptors) | EC50 (5HT2B receptors; [2]) | EC50 (5HT2C receptors; [3]) | Emax (5HT2C receptors; read-out: Emax) | Emax (5HT2B receptors; CHO-K1) | EC50 (5HT2C receptors; EC50, 5-HT2C agonist activity) |
| --- | --- | --- | --- | --- | --- | --- | --- | --- |
| CN1C[C@H]2CNC(=O)c3c(OC(F)(F)F)cccc3[C@@H]2C1 [Example 112, (3aR,10bR)-2-Methyl-7-(trifluoromethoxy)-1,2,3,3a,4,5-hexahydrobenzo[c]pyrrolo[3,4-e]azepin-6(10bH)-one] | inactive | > 10000 nM | 90% | – | – | – | – | – |
| CN1C[C@H]2CNC(=O)c3cc(-c4ccc5c(c4)C(=O)CC5)ccc3[C@@H]2C1 (relative stereo) [Example 251, Trans-2-methyl-8-(3-oxo-2,3-dihydro-1H-inden-5-yl)-1,2,3,3a,4,5-hexahydrobenzo[c]pyrrolo[3,4-e]azepin-6(10bH)-one] | inactive | – | – | > 10000 nM | 400 nM | > 120% | – | – |
| COc1ccc(CCOc2ccc3c(c2)C(=O)NC[C@@H]2CNC[C@@H]32)cc1 (relative stereo) [Example 175, Trans-8-(4-methoxyphenethoxy)-1,2,3,3a,4,5-hexahydrobenzo[e]pyrrolo[3,4-c]azepin-6(10bH)-one] | inactive | – | – | > 10000 nM | 6 nM | > 120% | – | – |
| Cc1cc(-c2ccc3c(c2)C(=O)NC[C@@H]2CN(C)C[C@@H]32)ccc1F (relative stereo) [Example 314, Trans-8-(4-fluoro-3-methylphenyl)-2-methyl-2,3,3a,4,5,10b-hexahydropyrrolo[3,4-d][2]benzazepin-6(1H)-one] | inactive | – | – | > 10000 nM | 3 nM | 95% | – | – |
| Cc1ccc(-c2ccc3c(c2)C(=O)NC[C@@H]2CN(C)C[C@@H]32)cc1 (relative stereo) [Example 82, Trans-2-methyl-8-p-tolyl-1,2,3,3a,4,5-hexahydrobenzo[e]pyrrolo[3,4-c]azepin-6(10bH)-one] | inactive | – | – | > 10000 nM | 4.2 nM | > 120% | – | – |
| O=S(=O)(c1ccc(OC(F)(F)F)cc1)N1Cc2cccnc2[C@@H]2CNC[C@H]2C1 (relative stereo) [Example 349, Trans-6-{[4-(trifluoromethoxy)phenyl]sulfonyl}-5,6,7,7a,8,9,10,10a-octahydropyrido[3,2-c]pyrrolo[3,4-e]azepine] | inactive | – | – | > 10000 nM | 200 nM | 90% | – | – |
| CS(=O)(=O)c1cccc(-c2ccc3c(c2)C(=O)NC[C@@H]2CNC[C@@H]32)c1 (relative stereo) [Example 227, Trans-8-(3-(methylsulfonyl)phenyl)-1,2,3,3a,4,5-hexahydrobenzo[c]pyrrolo[3,4-e]azepin-6(10bH)-one] | inactive | – | – | > 10000 nM | 0.8 nM | > 120% | – | – |
| c1ccc2c(c1)NCC[C@@H]1CNC[C@@H]21 (relative stereo) [Example 389, Trans-1,2,3,3a,4,5,6,10b-octahydropyrrolo[3,4-d][1]benzazepine] | – | – | 95% | 400 nM | 900 nM | – | 70% | – |
| CN1C[C@H]2CNC(=O)c3cc(-c4cccc(OC(F)(F)F)c4)ccc3[C@@H]2C1 (relative stereo) [Example 132, Trans-2-methyl-8-(3-(trifluoromethoxy)phenyl)-1,2,3,3a,4,5-hexahydrobenzo[e]pyrrolo[3,4-c]azepin-6(10bH)-one] | inactive | – | – | > 10000 nM | 20 nM | > 120% | – | – |
| COc1ccc2c(c1)[C@H]1CNC[C@@H]1CCC2 (relative stereo) [Example 263, Trans-9-methoxy-1,2,3,3a,4,5,6,10b-octahydrobenzo[3,4]cyclohepta[1,2-c]pyrrole] | – | 20 nM | > 120% | – | – | – | 100% | 100 nM |
| CN1C[C@@H]2CNC(=O)c3cc(-c4ccc5c(c4)C(O)CC5)ccc3[C@H]2C1 (stereo partly drawn) [Example 310, (3aS,10bS)-8-(3-Hydroxy-2,3-dihydro-1H-inden-5-yl)-2-methyl-2,3,3a,4,5,10b-hexahydropyrrolo[3,4-d][2]benzazepin-6(1H)-one] | inactive | – | – | > 10000 nM | 0.7 nM | 100% | – | – |
| CN1C[C@@H]2CCOc3ccc(Cl)cc3[C@H]2C1 [Example 234, (3aR,10bS)-9-Chloro-2-methyl-2,3,3a,4,5,10b-hexahydro-1H-[1]benzoxepino[4,5-c]pyrrole] | – | 10 nM | > 120% | – | – | – | 70% | 10 nM |
| O=C1NC[C@@H]2CNC[C@H]2c2ccc(OCCc3ccccc3)cc21 (relative stereo) [Example 123, Trans-8-phenethoxy-1,2,3,3a,4,5-hexahydrobenzo[e]pyrrolo[3,4-c]azepin-6(10bH)-one] | inactive | > 10000 nM | 120% | – | – | – | – | 10 nM |
| CN1C[C@H]2CNC(=O)c3cc(-c4ccsc4Cl)ccc3[C@@H]2C1 (relative stereo) [Example 387, Trans-8-(2-chloro-3-thienyl)-2-methyl-2,3,3a,4,5,10b-hexahydropyrrolo[3,4-d][2]benzazepin-6(1H)-one] | inactive | – | – | > 10000 nM | 6 nM | 95% | – | – |
| CN1C[C@H]2CNC(=O)c3cc(C4=CCCC4)ccc3[C@@H]2C1 (relative stereo) [Example 201, Trans-8-cyclopentenyl-2-methyl-1,2,3,3a,4,5-hexahydrobenzo[e]pyrrolo[3,4-c]azepin-6(10bH)-one] | inactive | > 10000 nM | 120% | – | – | – | – | 100 nM |
| O=C1NC[C@@H]2CNC[C@H]2c2ccc(-c3ccncc3)cc21 (relative stereo) [Example 177, Trans-8-(pyridin-4-yl)-1,2,3,3a,4,5-hexahydrobenzo[e]pyrrolo[3,4-c]azepin-6(10bH)-one] | inactive | > 10000 nM | > 120% | – | – | – | – | 100 nM |
| COC(=O)c1ccc2c(c1)C(=O)NC[C@@H]1CN(C)C[C@@H]21 (relative stereo) [Example 88, Trans-methyl 2-methyl-6-oxo-1,2,3,3a,4,5,6,10b-octahydrobenzo[e]pyrrolo[3,4-c]azepine-8-carboxylate] | inactive | – | – | > 10000 nM | 500 nM | > 120% | – | – |
| CN1CC[C@@H]2CNC[C@H]2c2ccccc21 (relative stereo) [Example 327, Trans-6-methyl-1,2,3,3a,4,5,6,10b-octahydropyrrolo[3,4-d][1]benzazepine] | – | 200 nM | 95% | – | – | – | 75% | 10 nM |
| CC(C)COc1cccc(-c2ccc3c(c2)C(=O)NC[C@@H]2CN(C)C[C@@H]32)c1 (relative stereo) [Example 134, Trans-8-(3-isobutoxyphenyl)-2-methyl-1,2,3,3a,4,5-hexahydrobenzo[e]pyrrolo[3,4-c]azepin-6(10bH)-one] | inactive | – | – | > 10000 nM | 60 nM | > 120% | – | – |
| O=C1NC[C@@H]2CNC[C@H]2c2ccc(C3=CCOCC3)cc21 (relative stereo) [Example 241, Trans-8-(3,6-dihydro-2H-pyran-4-yl)-1,2,3,3a,4,5-hexahydrobenzo[c]pyrrolo[3,4-e]azepin-6(10bH)-one] | inactive | – | – | > 10000 nM | 7 nM | > 120% | – | – |
| O=C1NC[C@@H]2CNC[C@H]2c2ccc(OCCc3cccc(F)c3)cc21 (relative stereo) [Example 124, Trans-8-(3-fluorophenethoxy)-1,2,3,3a,4,5-hexahydrobenzo[e]pyrrolo[3,4-c]azepin-6(10bH)-one] | inactive | – | – | > 10000 nM | 20 nM | > 120% | – | – |
| CC(C)C(=O)N1CC[C@@H]2CNC[C@H]2c2ccccc21 (relative stereo) [Example 333, 1-[Trans-2,3,3a,4,5,10b-hexahydropyrrolo[3,4-d][1]benzazepin-6(1H)-yl]-2-methylpropan-1-one] | – | – | 90% | 2000 nM | 300 nM | – | 40% | – |
| CN1C[C@H]2CNC(=O)c3cc(C(=O)Nc4ccccc4)ccc3[C@@H]2C1 (relative stereo) [Example 128, Trans-2-methyl-6-oxo-N-phenyl-1,2,3,3a,4,5,6,10b-octahydrobenzo[e]pyrrolo[3,4-c]azepine-8-carboxamide] | inactive | – | – | > 10000 nM | 2000 nM | 50% | – | – |
| c1cnc2c(c1)[C@@H]1CNC[C@H]1CCO2 (relative stereo) [Example 264, Trans-2,3,3a,4,5,10b-hexahydro-1H-pyrrolo[3′,4′:4,5]oxepino[2,3-b]pyridine] | – | – | > 120% | 3000 nM | 1000 nM | – | 20% | – |
